Experimental data: the NIST ThermoML archive (doi:10.1016/j.jct.2013.04.015)
± gives the expanded uncertainty stated by the source.

Legend:
[1] = xn = mol fraction of the nth substance listed; conditions: for surface tension liquid-gas: Wilhelmy plate method; for mass density: 101 kPa, Liquid, Vibrating tube method
[2] = for surface tension liquid-gas: Wilhelmy plate method; for mass density: 101 kPa, Liquid, Vibrating tube method

CCCCn1cc[n+](C)c1.C[C@H](O)C(=O)[O-] [1-butyl-3-methylimidazolium L-lactate] + O
[1]
Conditions	mass density, 298.15 K [kg/m3]	mass density, 308.15 K [kg/m3]	mass density, 318.15 K [kg/m3]	surface tension liquid-gas, 298.15 K [mN/m]	surface tension liquid-gas, 308.15 K [mN/m]	surface tension liquid-gas, 318.15 K [mN/m]
x1 = 0.0097	–	–	–	53.67 ± 0.63	51.15 ± 0.6	49.79 ± 0.6
x1 = 0.0303	–	–	–	47.86 ± 0.56	46.42 ± 0.55	45.58 ± 0.54
x1 = 0.0401	–	–	–	46.95 ± 0.55	46.08 ± 0.54	45.57 ± 0.54
x1 = 0.0602	–	–	–	46.15 ± 0.54	45.87 ± 0.54	45.55 ± 0.53
x1 = 0.0801	–	–	–	46.98 ± 0.54	46.54 ± 0.54	46.18 ± 0.54
x1 = 0.1	–	–	–	46.96 ± 0.54	46.83 ± 0.54	46.15 ± 0.53
x1 = 0.1001	1042.3 ± 0.9	1039.4 ± 0.9	1036.4 ± 0.9	–	–	–
x1 = 0.2001	1061.4 ± 0.8	1058.3 ± 0.8	1055 ± 0.8	46.03 ± 0.51	44.94 ± 0.5	44.2 ± 0.5
x1 = 0.2999	1075 ± 0.8	1071 ± 0.8	1066.6 ± 0.8	–	–	–
x1 = 0.3003	–	–	–	44.61 ± 0.48	43.59 ± 0.48	42.86 ± 0.47
x1 = 0.3985	1083.6 ± 0.7	1079.1 ± 0.7	1074.1 ± 0.7	–	–	–
x1 = 0.3997	–	–	–	44.08 ± 0.46	43.16 ± 0.46	42.44 ± 0.45
x1 = 0.4994	–	–	–	43.46 ± 0.44	43.07 ± 0.44	42.27 ± 0.44
x1 = 0.5023	1090.3 ± 0.7	1085.4 ± 0.7	1080.2 ± 0.7	–	–	–
x1 = 0.5989	–	–	–	43.47 ± 0.43	42.87 ± 0.42	42.11 ± 0.42
x1 = 0.6002	1095.7 ± 0.6	1090.2 ± 0.6	1084.3 ± 0.6	–	–	–
x1 = 0.6982	–	–	–	43.41 ± 0.41	42.62 ± 0.41	42.02 ± 0.41
x1 = 0.6986	1099.8 ± 0.6	1093.5 ± 0.6	1087.4 ± 0.6	–	–	–
x1 = 0.8	1103.3 ± 0.6	1096.6 ± 0.6	1090.3 ± 0.5	–	–	–
x1 = 0.8017	–	–	–	43.35 ± 0.4	42.54 ± 0.39	42 ± 0.39
x1 = 0.8965	–	–	–	43.2 ± 0.38	42.48 ± 0.38	41.82 ± 0.38
x1 = 0.9001	1107.2 ± 0.5	1100.3 ± 0.5	1093.8 ± 0.5	–	–	–
x1 = 1	1111.2 ± 0.5	1104.2 ± 0.5	1097.7 ± 0.5	42.92 ± 0.37	42.37 ± 0.37	42.01 ± 0.37

CCCCO [butan-1-ol]
[2]
Conditions	mass density [kg/m3]	surface tension liquid-gas [mN/m]
298.15 K	805.7 ± 0.4	23.89 ± 0.3
308.15 K	798 ± 0.4	23.46 ± 0.3
318.15 K	790.1 ± 0.4	22.62 ± 0.3

CCCCO [butan-1-ol] + CCCCn1cc[n+](C)c1.C[C@H](O)C(=O)[O-]
[1], x2 = 0
Conditions	mass density [kg/m3]	surface tension liquid-gas [mN/m]
298.15 K	805.7 ± 0.4	23.89 ± 0.3
308.15 K	798 ± 0.4	23.46 ± 0.3
318.15 K	790.1 ± 0.4	22.62 ± 0.3

CCO [ethanol]
[2]
Conditions	mass density [kg/m3]	surface tension liquid-gas [mN/m]
298.15 K	784.7 ± 0.4	22.11 ± 0.31
308.15 K	776.2 ± 0.4	21.13 ± 0.3
318.15 K	767 ± 0.4	20.48 ± 0.3

CCO [ethanol] + CCCCn1cc[n+](C)c1.C[C@H](O)C(=O)[O-]
[1], x2 = 0
Conditions	mass density [kg/m3]	surface tension liquid-gas [mN/m]
298.15 K	784.7 ± 0.4	22.11 ± 0.31
308.15 K	776.2 ± 0.4	21.13 ± 0.3
318.15 K	767 ± 0.4	20.48 ± 0.3

CO [methanol]
[2]
Conditions	mass density [kg/m3]	surface tension liquid-gas [mN/m]
298.15 K	786.4 ± 0.4	22.22 ± 0.31
308.15 K	776.9 ± 0.4	21.46 ± 0.3
318.15 K	767.2 ± 0.4	20.46 ± 0.3

CO [methanol] + CCCCn1cc[n+](C)c1.C[C@H](O)C(=O)[O-]
[1], x2 = 0
Conditions	mass density [kg/m3]	surface tension liquid-gas [mN/m]
298.15 K	786.4 ± 0.4	22.22 ± 0.31
308.15 K	776.9 ± 0.4	21.46 ± 0.3
318.15 K	767.2 ± 0.4	20.46 ± 0.3

O [water]
[2]
Conditions	mass density [kg/m3]	surface tension liquid-gas [mN/m]
298.15 K	–	71.85 ± 0.78
308.15 K	994.1 ± 0.9	70.48 ± 0.77
318.15 K	–	68.89 ± 0.75

O [water] + CCCCn1cc[n+](C)c1.C[C@H](O)C(=O)[O-]
[1], x2 = 0
Conditions	mass density [kg/m3]	surface tension liquid-gas [mN/m]
298.15 K	–	71.85 ± 0.78
308.15 K	994.1 ± 0.9	70.48 ± 0.77
318.15 K	–	68.89 ± 0.75
